The values below come from ChEMBL document CHEMBL1201862, “PubChem BioAssay data set” (2004).

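48-hour exposure; five concentrations; linearly interpolated endpoints. GI50: concentration for 50% inhibition of growth.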 The source made the active and inactive calls. No stated cut-off is given here; in the data, active = GI50 up to about 1.1 µM and inactive = higher.

Holding throughout (experiment): DTP human tumour cell line panel, 48 h
The subject of assay [1] is OVCAR-4.
The test system of assay [2] is HCT-116.
The test system of assay [3] is COLO 205.
For assay [4], the system named is NCI-H460.
Assay [5] concerns HOP-62.
Assay [6] has as its system Hs-578T.
For assay [7], the system named is Malme-3M.
In assay [8] the test system is BT-549.
Assay [9] has as its system ACHN.
Assay [10] deals with HOP-92.
The test system of assay [11] is SW-620.
Assay [12] has as its system NCI/ADR-RES.
The test system of assay [13] is HL-60.
Assay [14] deals with NCI-H23.
Assay [15] deals with PC-3.
Assay [16] has as its system UACC-62.
In assay [17] the test system is EKVX.
For assay [18], the system named is SR.
In assay [19] the test system is NCI-H226.

As to `N#Cc1ccccc1OCCOc1ccccc1C#N`, the GI50 in assay [1], in assay [2], in assay [3], in assay [4], in [5] and in assay [6] was > 100 µM (inactive) each time. For the same compound, the GI50 in assay [7], in assay [8], in assay [9], in assay [10], in assay [11] and in [12] was > 100 µM (inactive) each time. The GI50 in assay [13], in [14], in assay [15], in [16], in [17] and in assay [18] was > 100 µM (inactive) each time. Besides, in [19], the GI50 was > 100 µM (inactive).
Take `CC(C)=CC(=O)c1[nH]c2ccccc2c1CC(=O)NCCc1cn(C(c2ccccc2)(c2ccccc2)c2ccccc2)cn1`: the GI50 in assay [1] was 3.86 µM (inactive); in [2] it was 2.77 µM (inactive); in assay [3], 1.81 µM (inactive); in assay [4], 2.97 µM (inactive); in assay [5] it was 11.9 µM (inactive); in assay [6], 16.8 µM (inactive). Further, the GI50 in assay [7] is 5.78 µM (inactive); in assay [8], 3.25 µM (inactive); in assay [9] it was 3.54 µM (inactive); in [10], 2.49 µM (inactive); in [11], 3.74 µM (inactive); in assay [12], 3.17 µM (inactive). In addition, the GI50 in [13] was 1.26 µM (inactive); in [14], 4.69 µM (inactive); in assay [15], 2.46 µM (inactive); in [16], 1.97 µM (inactive); in [17], 3.48 µM (inactive); in [18], 0.979 µM (active). Besides, in assay [19], the GI50 was 2.94 µM (inactive).
`Clc1ccc(C2C3COc4ccccc4C3=NN2c2ccccc2)cc1` (stereo not given): the GI50 in [1] was > 100 µM (inactive); in assay [2] it was 33.2 µM (inactive); in assay [3], > 100 µM (inactive); in [4], > 100 µM (inactive); in assay [5], > 100 µM (inactive); in assay [6], 54.2 µM (inactive). Moreover, the GI50 in assay [7] is > 100 µM (inactive); in assay [8], 68.5 µM (inactive); in [9], > 100 µM (inactive); in assay [10], > 100 µM (inactive); in [11], 5.05 µM (inactive); in [12], 29.7 µM (inactive). Further, the GI50 in assay [13] was 27.4 µM (inactive); in assay [14] it was > 91.6 µM (inactive); in [15] it was > 67.1 µM (inactive); in [16], 64.7 µM (inactive); in [17], > 100 µM (inactive); in [18], 0.198 µM (active). Further, the GI50 in assay [19] was 30 µM (inactive).
For `COc1cc(/C=C/c2nc(NC(=S)Nc3ccccc3)nnc2C)cc(OC)c1OC`, the GI50 in [1] was 18.7 µM (inactive); in assay [2], 24.7 µM (inactive); in assay [3], 15.5 µM (inactive); in [4] it was 15.7 µM (inactive); in assay [5] it was 35.2 µM (inactive); in assay [6], 17.6 µM (inactive). In addition, the GI50 in assay [7] is 23.9 µM (inactive); in assay [8] it was 25.2 µM (inactive); in [9], 18.2 µM (inactive); in assay [10], 53.7 µM (inactive); in assay [11] it was 38.1 µM (inactive); in assay [12], 28.4 µM (inactive). Also, the GI50 was 8.3 µM (inactive) in [13]; 17.3 µM (inactive) in assay [14]; 14.3 µM (inactive) in assay [15]; 14.1 µM (inactive) in assay [16]; 22.4 µM (inactive) in assay [17]; 12.4 µM (inactive) in assay [18]. Besides, the GI50 in [19] is 23.7 µM (inactive).
As for `CC[C@]1(O)CC(OC2CC(N(C)C)C(O)C(C)O2)c2c(cc3c(c2O)C(=O)c2c(O)cccc2C3=O)[C@@H]1C(=O)OC` (stereo not given in full), the concentration for 50% growth inhibition (GI50) is 0.114 µM (active) in assay [1]; 0.0455 µM (active) in [2]; 0.0881 µM (active) in assay [3]; 0.045 µM (active) in assay [4]; 0.146 µM (active) in [5]; 0.745 µM (active) in assay [6]. For the same compound, the GI50 was 0.245 µM (active) in [7]; 1.16 µM (inactive) in assay [8]; 0.0537 µM (active) in assay [9]; 0.22 µM (active) in [10]; 0.0392 µM (active) in [11]; 0.269 µM (active) in assay [12]. Moreover, the GI50 in assay [13] was 0.249 µM (active); in assay [14], 0.272 µM (active); in assay [15] it was 0.214 µM (active); in [16], 0.196 µM (active); in assay [17], 0.493 µM (active); in assay [18] it was 0.0538 µM (active). The GI50 in assay [19] is 0.243 µM (active).
For `N#CC(c1ccccc1)N1CCCN(C(C#N)c2ccccc2)C1c1ccccc1O` (stereo not given), the GI50 is > 100 µM (inactive) in [1]; 93.5 µM (inactive) in assay [2]; > 100 µM (inactive) in assay [3]; > 100 µM (inactive) in [4]; > 100 µM (inactive) in [5]; > 100 µM (inactive) in assay [6]. For the same compound, the GI50 in assay [7] was > 100 µM (inactive); in assay [8] it was > 100 µM (inactive); in [9] it was > 100 µM (inactive); in [10], 22.7 µM (inactive); in assay [11] it was > 100 µM (inactive); in assay [12], > 100 µM (inactive). Further, the 50% growth inhibitory concentration (GI50) in assay [13] is 0.0362 µM (active); in assay [14] it was > 100 µM (inactive); in assay [15], > 100 µM (inactive); in [16], > 100 µM (inactive); in [17], > 100 µM (inactive); in assay [18] it was > 100 µM (inactive). In addition, in assay [19], the GI50 was > 100 µM (inactive).
Turning to `CC(=O)O[C@H]1C(=O)[C@@]2(C)[C@H]([C@H](OC(=O)c3ccccc3)[C@@]3(O)C[C@H](O)C(C)=C1C3(C)C)[C@]1(OC(C)=O)CO[C@@H]1C[C@@H]2O`, the GI50 was > 100 µM (inactive) in assay [1]; 30.5 µM (inactive) in assay [2]; 26.5 µM (inactive) in assay [3]; 24.2 µM (inactive) in [4]; 54 µM (inactive) in [5]; 19 µM (inactive) in assay [6]. For the same compound, the GI50 in assay [7] is > 100 µM (inactive); in assay [8] it was 32.4 µM (inactive); in assay [9], > 100 µM (inactive); in [10], > 100 µM (inactive); in [11], 14.6 µM (inactive); in assay [12], > 100 µM (inactive). In addition, the GI50 in [13] was 61.9 µM (inactive); in [14], 39.1 µM (inactive); in assay [15] it was 28 µM (inactive); in assay [16], 36 µM (inactive); in assay [17], > 100 µM (inactive); in [18] it was 12.9 µM (inactive). The GI50 in assay [19] is 86.5 µM (inactive).
For `CSC1=NC(=O)CCN1C1OCC(OC(C)=O)C(OC(C)=O)C1OC(C)=O` (stereo not given), the GI50 in [1] is 19.2 µM (inactive); in assay [2] it was 5.45 µM (inactive); in assay [3], 23.9 µM (inactive); in [4], 10.4 µM (inactive); in assay [5], 18.7 µM (inactive); in [6], 12.6 µM (inactive). For the same compound, the GI50 in [7] was 14.3 µM (inactive); in assay [8], 15.1 µM (inactive); in [9], 17 µM (inactive); in assay [10], 14.8 µM (inactive); in [11], 18.3 µM (inactive); in assay [12], 15.8 µM (inactive). Moreover, the GI50 in assay [13] was 2.99 µM (inactive); in assay [14], 20.8 µM (inactive); in [15], 15 µM (inactive); in assay [16] it was 40.6 µM (inactive); in [17], 20.1 µM (inactive); in assay [18] it was 4.51 µM (inactive). Besides, the GI50 in assay [19] is 18.7 µM (inactive).
Take `CCOP(=O)(OCC)/C(C#N)=C/c1[nH]cnc1C`: the GI50 in [1], in assay [2], in [3], in assay [4], in assay [5] and in assay [6] was > 100 µM (inactive) each time. Also, the GI50 in assay [7], in assay [8], in assay [9], in [10], in assay [11] and in assay [12] was > 100 µM (inactive) in each case. For the same compound, the GI50 in assay [13], in assay [14], in assay [15], in [16], in assay [17] and in [18] was > 100 µM (inactive) throughout. Besides, the GI50 in assay [19] is > 100 µM (inactive).
Take `CCOC1OC(=O)c2cc3ccc4c(c3c(-c3ccc5c(c3)OCO5)c21)OCO4` (stereo not given): the GI50 was 16.7 µM (inactive) in assay [1]; 2.43 µM (inactive) in assay [2]; 1.55 µM (inactive) in assay [3]; 3.56 µM (inactive) in assay [4]; 4.63 µM (inactive) in [5]; 3.2 µM (inactive) in assay [6]. In addition, the GI50 is > 100 µM (inactive) in assay [7]; 4.28 µM (inactive) in assay [8]; 10.4 µM (inactive) in assay [9]; 96.8 µM (inactive) in assay [10]; 6.04 µM (inactive) in assay [11]; 5.13 µM (inactive) in assay [12]. The GI50 in [13] was 9.91 µM (inactive); in assay [14], 3.72 µM (inactive); in assay [15], 10.1 µM (inactive); in assay [16] it was 6.01 µM (inactive); in assay [17], 3.54 µM (inactive); in assay [18], 2.04 µM (inactive). In addition, in assay [19], the GI50 was 4.71 µM (inactive).
